The text below walks through data of US20230348424A1, “HETEROCYCLIC COMPOUNDS AND METHODS OF USE” (Schrödinger, Inc., priority 2022, published 2023).

The structures appear in SMILES notation.

SOS1:KRAS (G12C) interaction, sequence (Q07889 564-1049, stated change not applied): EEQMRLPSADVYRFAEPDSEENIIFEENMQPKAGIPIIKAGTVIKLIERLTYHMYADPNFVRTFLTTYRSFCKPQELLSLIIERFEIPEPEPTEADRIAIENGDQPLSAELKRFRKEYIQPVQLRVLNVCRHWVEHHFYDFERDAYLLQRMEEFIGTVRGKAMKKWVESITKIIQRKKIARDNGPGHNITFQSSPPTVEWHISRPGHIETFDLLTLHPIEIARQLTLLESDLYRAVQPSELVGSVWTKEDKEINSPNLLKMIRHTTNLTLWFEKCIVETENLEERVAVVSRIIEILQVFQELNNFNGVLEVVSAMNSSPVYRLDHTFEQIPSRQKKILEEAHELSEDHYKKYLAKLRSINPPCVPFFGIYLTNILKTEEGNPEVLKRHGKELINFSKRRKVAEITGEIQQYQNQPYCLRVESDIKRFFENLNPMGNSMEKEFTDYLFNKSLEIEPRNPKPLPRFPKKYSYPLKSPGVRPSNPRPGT

This test concerns the target SOS1:KRAS (G12C) interaction (Homo sapiens (Human), UniProt Q07889). Put plainly: SOS1 KRas(G12C) FRET Assay. Type of test: binding. The note with it: 0.5 nM His10-SOS1 (res. 564-1049), 2.5 nM GST-KRAS G12C (res. 1-169), 2 hrs at RT. Put shortly:
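GST-KRAS G12C (res. 1-169) at 2.5 nM and His10-SOS1 (res. 564-1049) at 0.5 nM, final, in PBS with 0.1% BSA, 5 mM MgCl2, 100 mM KF, 5 mM DTT and 0.5% DMSO. After 2 h at RT, FRET read at 665/615 nm and normalized to DMSO and no-SOS1 controls. IC50 by non-linear regression.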
In the case of `C[C@@H](NC(=O)c1cn(C2(C)CN(C(=O)C3CC3)C2)c(=O)cc1N[C@H]1[C@@H]2CN(C)C[C@@H]21)c1cccc(C(F)F)c1F` [Example 270, 1-(1-(cyclopropanecarbonyl)-3-methylazetidin-3-yl)-N-((R)-1-(3-(difluoromethyl)-2-fluorophenyl)ethyl)-4-(((1R,5S,6s)-3-methyl-3-azabicyclo[3.1.0]hexan-6-yl)amino)-6-oxo-1,6-dihydropyridine-3-carboxamide], half-maximal inhibition (IC50) was put at 0.00174 µM. This counts as single-digit nanomolar. To `C[C@@H](NC(=O)c1cn(C2(C(F)F)CC2)c(=O)cc1N[C@H]1[C@@H]2CNC[C@@H]21)c1cccc(C(F)F)c1F` [Example 279, 4-(((1R,5S,6s)-3-azabicyclo[3.1.0]hexan-6-yl)amino)-N-((R)-1-(3-(difluoromethyl)-2-fluorophenyl)ethyl)-1-(1-(difluoromethyl)cyclopropyl)-6-oxo-1,6-dihydropyridine-3-carboxamide] belongs 0.0373 µM; to `Cc1c([C@@H](C)NC(=O)c2cn(C3CCOCC3)c(=O)cc2NC2CCNCC2)cccc1C(F)(F)F` [Example 282, (R)-N-(1-(2-methyl-3-(trifluoromethyl)phenyl)ethyl)-6-oxo-4-(piperidin-4-ylamino)-1-(tetrahydro-2H-pyran-4-yl)-1,6-dihydropyridine-3-carboxamide], 0.0344 µM. The result for `Cc1c([C@@H](C)NC(=O)c2cn(C3CCOCC3)c(=O)cc2NC2CCN(C)CC2(F)F)cccc1C(F)(F)F` (stereo partly drawn) [Example 283, 4-((3,3-difluoro-1-methylpiperidin-4-yl)amino)-N-((R)-1-(2-methyl-3-(trifluoromethyl)phenyl)ethyl)-6-oxo-1-(tetrahydro-2H-pyran-4-yl)-1,6-dihydropyridine-3-carboxamide] reads 0.137 µM; that for `Cc1c([C@@H](C)NC(=O)c2cn(C3CCOCC3)c(=O)cc2NC2CCN(C3CC3)CC2)cccc1C(F)(F)F` [Example 284, (R)-4-((1-cyclopropylpiperidin-4-yl)amino)-N-(1-(2-methyl-3-(trifluoromethyl)phenyl)ethyl)-6-oxo-1-(tetrahydro-2H-pyran-4-yl)-1,6-dihydropyridine-3-carboxamide], 0.023 µM; that for `C[C@@H](NC(=O)c1cn([C@]23COC[C@H]2C3)c(=O)cc1NC1CCN(C)CC1)c1cccc(C(F)F)c1F` [Example 285, 1-((1S,SS)-3-oxabicyclo[3.1.0]hexan-1-yl)-N-((R)-1-(3-(difluoromethyl)-2-fluorophenyl)ethyl)-4-((1-methylpiperidin-4-yl)amino)-6-oxo-1,6-dihydropyridine-3-carboxamide], 0.0047 µM. The result for `[2H]C([2H])([2H])N1CCC(Nc2cc(=O)n(C3(C(F)F)CC3)cc2C(=O)N[C@H](C)c2cccc(C(F)F)c2F)CC1` [Example 286, (R)-N-(1-(3-(difluoromethyl)-2-fluorophenyl)ethyl)-1-(1-(difluoromethyl)cyclopropyl)-4-((1-(methyl-d3)piperidin-4-yl)amino)-6-oxo-1,6-dihydropyridine-3-carboxamide] reads 0.0155 µM; that for `C[C@@H](NC(=O)c1cn([C@]23COC[C@H]2C3)c(=O)cc1N[C@H]1[C@@H]2CN(C)C[C@@H]21)c1cccc(C(F)F)c1F` [Example 287, 1-((1S,5S)-3-oxabicyclo[3.1.0]hexan-1-yl)-N-((R)-1-(3-(difluoromethyl)-2-fluorophenyl)ethyl)-4-(((1R,5S,6s)-3-methyl-3-azabicyclo[3.1.0]hexan-6-yl)amino)-6-oxo-1,6-dihydropyridine-3-carboxamide], 0.0099 µM. `C[C@@H](NC(=O)c1cn(C2(C(F)F)CC2)c(=O)cc1NC1CCN(C2(C)CC2)CC1)c1cccc(C(F)F)c1F` [Example 288, (R)-N-(1-(3-(difluoromethyl)-2-fluorophenyl)ethyl)-1-(1-(difluoromethyl)cyclopropyl)-4-((1-(1-methylcyclopropyl)piperidin-4-yl)amino)-6-oxo-1,6-dihydropyridine-3-carboxamide]: the IC50 (usually the concentration at which inhibition is half-maximal) was determined as 0.0236 µM. Take `C[C@@H](NC(=O)c1cn([C@]23COC[C@H]2C3)c(=O)cc1N[C@H]1[C@@H]2CN(C)C[C@@H]21)c1cccc(C(C)(F)F)c1F` [Example 289, 1-((1S,5S)-3-oxabicyclo[3.1.0]hexan-1-yl)-N-((R)-1-(3-(1,1-difluoroethyl)-2-fluorophenyl)ethyl)-4-(((1R,5S,6s)-3-methyl-3-azabicyclo[3.1.0]hexan-6-yl)amino)-6-oxo-1,6-dihydropyridine-3-carboxamide]: the IC50 is 0.0133 µM. The molecule `C[C@@H](NC(=O)c1cn([C@]23COC[C@H]2C3)c(=O)cc1N[C@H]1[C@@H]2CN(C)C[C@@H]21)c1cccc(C(F)(F)F)c1F` [Example 290, 1-((1S,5S)-3-oxabicyclo[3.1.0]hexan-1-yl)-N-((R)-1-(2-fluoro-3-(trifluoromethyl)phenyl)ethyl)-4-(((1R,5S,6s)-3-methyl-3-azabicyclo[3.1.0]hexan-6-yl)amino)-6-oxo-1,6-dihydropyridine-3-carboxamide] had an IC50 of 0.0092 µM. This IC50 and that of the molecule before are within 1.5-fold of each other. The result for `C[C@@H](NC(=O)c1cn(C2(C(F)F)CC2)c(=O)cc1N[C@H]1[C@@H]2CC[C@H]1CN(C)C2)c1cccc(C(F)F)c1F` [Example 293, N-((R)-1-(3-(difluoromethyl)-2-fluorophenyl)ethyl)-1-(1-(difluoromethyl)cyclopropyl)-4-(((1R,5S,8r)-3-(methyl-d3)-3-azabicyclo[3.2.1]octan-8-yl)amino)-6-oxo-1,6-dihydropyridine-3-carboxamide] reads 0.0192 µM; that for `C[C@@H](NC(=O)c1cn(C2(C(F)F)CC2)c(=O)cc1N[C@@H]1[C@@H]2CC[C@H]1CN(C)C2)c1cccc(C(F)F)c1F` [Example 294, N-((R)-1-(3-(difluoromethyl)-2-fluorophenyl)ethyl)-1-(1-(difluoromethyl)cyclopropyl)-4-(((1R,5S,8s)-3-(methyl-d3)-3-azabicyclo[3.2.1]octan-8-yl)amino)-6-oxo-1,6-dihydropyridine-3-carboxamide], 0.0534 µM; that for `COCCN1CC(CNc2cc(=O)n(C3CCOCC3)cc2C(=O)N[C@H](C)c2cccc(C(F)(F)F)c2C)C1` [Example 295, (R)-4-(((1-(2-methoxyethyl)azetidin-3-yl)methyl)amino)-N-(1-(2-methyl-3-(trifluoromethyl)phenyl)ethyl)-6-oxo-1-(tetrahydro-2H-pyran-4-yl)-1,6-dihydropyridine-3-carboxamide], 0.0536 µM.

As for `Cc1c([C@@H](C)NC(=O)c2cn(C3CCOCC3)c(=O)cc2NC2CCCn3cncc32)cccc1C(F)(F)F` (stereo partly drawn) [Example 300, N-((R)-1-(2-methyl-3-(trifluoromethyl)phenyl)ethyl)-6-oxo-1-(tetrahydro-2H-pyran-4-yl)-4-((5,6,7,8-tetrahydroimidazo[1,5-a]pyridin-8-yl)amino)-1,6-dihydropyridine-3-carboxamide], the IC50 worked out at 0.0208 µM. To `Cc1c([C@@H](C)NC(=O)c2cn(C3CCOCC3)c(=O)cc2NC[C@H]2CC[C@H](N(C)C)CC2)cccc1C(F)(F)F` [Example 301, 4-((((1r,4R)-4-(dimethylamino)cyclohexyl)methyl)amino)-N-((R)-1-(2-methyl-3-(trifluoromethyl)phenyl)ethyl)-6-oxo-1-(tetrahydro-2H-pyran-4-yl)-1,6-dihydropyridine-3-carboxamide] belongs 0.0453 µM; to `Cc1c([C@@H](C)NC(=O)c2cn(C3CCOCC3)c(=O)cc2NC[C@H]2CC[C@@H](N(C)C)CC2)cccc1C(F)(F)F` [Example 302, 4-((((1s,4S)-4-(dimethylamino)cyclohexyl)methyl)amino)-N-((R)-1-(2-methyl-3-(trifluoromethyl)phenyl)ethyl)-6-oxo-1-(tetrahydro-2H-pyran-4-yl)-1,6-dihydropyridine-3-carboxamide], 0.0315 µM; to `C[C@@H](NC(=O)c1cn([C@@H]2CCOC(C)(C)C2)c(=O)cc1N[C@H]1[C@@H]2CN(C)C[C@@H]21)c1cccc(C(F)F)c1F` [Example 309, N-((R)-1-(3-(difluoromethyl)-2-fluorophenyl)ethyl)-1-((R)-2,2-dimethyltetrahydro-2H-pyran-4-yl)-4-(((1R,5S,6s)-3-methyl-3-azabicyclo[3.1.0]hexan-6-yl)amino)-6-oxo-1,6-dihydropyridine-3-carboxamide], 0.0117 µM.

Take `C[C@@H](NC(=O)c1cn([C@H]2CCOC(C)(C)C2)c(=O)cc1N[C@H]1[C@@H]2CN(C)C[C@@H]21)c1cccc(C(F)F)c1F` [Example 310, N-((R)-1-(3-(difluoromethyl)-2-fluorophenyl)ethyl)-1-((S)-2,2-dimethyltetrahydro-2H-pyran-4-yl)-4-(((1R,5S,6s)-3-methyl-3-azabicyclo[3.1.0]hexan-6-yl)amino)-6-oxo-1,6-dihydropyridine-3-carboxamide]: the IC50 was found to be 0.0372 µM. In the case of `CCC12CC(n3cc(C(=O)N[C@H](C)c4cccc(C(F)F)c4F)c(NC4[C@H]5CN(C)C[C@@H]45)cc3=O)(C1)C2` (stereo partly drawn) [Example 313, N-((R)-1-(3-(difluoromethyl)-2-fluorophenyl)ethyl)-1-(3-ethylbicyclo[1.1.1]pentan-1-yl)-4-(((1R,5S,6s)-3-methyl-3-azabicyclo[3.1.0]hexan-6-yl)amino)-6-oxo-1,6-dihydropyridine-3-carboxamide], inhibition was half-maximal at 0.0105 µM (IC50). Compared with the last molecule, the IC50 is about 3.5-fold lower.
